Key:
[1] = system: tonic seizures (electrically induced convulsions); test: Maximal Electroshock (percent protection from tonic seizures); assay type: in vivo; conditions: mice; for ED50: Mus musculus, ip, 0.5 h, intraperitoneal, 30 minutes prior to electrical challenge
Description: (§1) The pharmacological tests used are (1) maximal electroshock and (2) pentylenetetrazole (Metrazole®) chemical challenge where the percent protection afforded by the test compounds against convulsions induced by electrical stimulus or by the drug Metrazole is determined. These test procedures are described further hereinbelow.
(§2) The pharmacological test data are expressed either as an ED50 (mg/kg) or percent protection/dose (mg/kg) for test compounds administered intraperitoneally (IP) in mice.
Adult female mice in groups of eight were administered the test drug intraperitoneally (usually 100 mg/kg initially for screening) in liquid carrier (10 mg/ml), usually physiological saline or water, 30 minutes prior to electrical challenge. Animals were challenged electrically by placing brass electrodes on the corneas and applying an electrical stimulus (60 Hz, 5 m sec. pulse width, 34 mA intensity) for 0.2 seconds by way of a Grass Stimulator® and constant current unit and a Hunter Timer®. The absence of tonic seizures upon cessation of the stimuli was scored as protection in that animal. The number of animals protected from tonic seizures at a given dose of test drug was determined. […] EXP. THER. 96, 99-113.

[2] = system: pentylenetetrazol-induced convulsions; test: Metrazole Chemical Challenge (Swinyard Method); assay type: in vivo; conditions: mice; for ED50: Mus musculus, ip, 0.5 h, intraperitoneal, 1/2 hour before Metrazole 80 mg/kg S.C.
Description: as §1, §2
Groups of 8 adult female mice were randomly assigned to dosage groups according to the method of Steel, R. G. D., and Torrie, J. H. (1960) in "Principles and Procedures of Statistics", McGraw-Hill Book Company, Inc., pp 99-100, pp 428-31. Each mouse was identified with a color code on its tail. The test compounds were administered as solutions or suspensions in 10 ml/kg mouse body weight of 0.5% aqueous methyl cellulose within 15 minutes of preparation of the suspension. Metrazole® (pentylenetetrazol) was prepared as a solution in physiological saline. The mice were not fasted prior to the test. Eight mice were tested at each dosage level.
Each mouse received one dose of the test drug (usually 100 mg/kg for screening) in the 0.5% aqueous methylcellulose or the control article (0.5% aqueous methylcellulose alone) intraperitoneally. Metrazole (80 mg/kg S.C.) was then given in a loose fold of skin on the back of the neck, 1/2 hour after the test compound or control article was given. All injections were given in a volume of 10 ml/kg mouse body weight. […] Anticonvulsant data were tabulated as the percent protection, i.e., [formula] […] Hefner Publishing Co.

For `NC(=O)N1CC(Oc2ccc(C(F)(F)F)cc2Cl)C1` [Example 1, 3-[2-Chloro-4-(trifluoromethyl)phenoxy]-1-azetidinecarboxamide], the ED50 [1] was 8.5 mg/kg and the ED50 [2] was 11.5 mg/kg.

`CNC(=O)N1CC(Oc2ccc(C(F)(F)F)cc2Cl)C1` [Example 2, 3-[2-Chloro-4-(trifluoromethyl)phenoxy]-N-methyl-1-azetidinecarboxamide] showed an ED50 [1] of 6.4 mg/kg and an ED50 [2] of 11.3 mg/kg.

For `C=CCNC(=O)N1CC(Oc2ccc(C(F)(F)F)cc2Cl)C1` [Example 3, 3-[2-Chloro-4-(trifluoromethyl)phenoxy]-N-(2-propenyl)-1-azetidinecarboxamide], the ED50 [1] was 9.5 mg/kg, the Metrazole % protected ([2]; dose 10 mg/kg IP) was 12.5% and the Metrazole % protected ([2]; dose 36 mg/kg IP) was 0%.

With `CN(C)C(=O)N1CC(Oc2ccc(C(F)(F)F)cc2Cl)C1` [Example 4, 3-[2-Chloro-4-(trifluoromethyl)phenoxy]-N,N-dimethyl-1-azetidinecarboxamide] the ED50 [1] was 8.2 mg/kg, the Metrazole % protected ([2]; dose 31.6 mg/kg IP) was 37.5% and the Metrazole % protected ([2]; dose 52 mg/kg IP) was 0%. It also gave a Metrazole % protected ([2]; dose 100 mg/kg IP) of 0%.

Compound `CNC(=O)N1CC(Oc2ccccc2C(F)(F)F)C1` [Example 5, 3-[2-(Trifluoromethyl)phenoxy]-N-methyl-1-azetidinecarboxamide] has an ED50 [1] of 125 mg/kg and a Metrazole % protected ([2]; dose 120 mg/kg IP) of 0%.

`CNC(=O)N1CC(Oc2cccc(C(F)(F)F)c2)C1` [Example 6, N-Methyl-3-[3-(trifluoromethyl)phenoxy]-1-azetidinecarboxamide] gave an ED50 [1] of 29 mg/kg.

Compound `CNC(=O)N1CC(Oc2ccc(C(F)(F)F)cc2)C1` [Example 7, 3-(4-Trifluoromethylphenoxy)-N-methyl-1-azetidinecarboxamide] has an ED50 [1] of 25.7 mg/kg and an ED50 [2] of 33 mg/kg.

Compound `CNC(=O)N1CC(Oc2ccccc2Cl)C1` [Example 8, 3-(2-Chlorophenoxy)-N-methyl-1-azetidinecarboxamide] has an Electroshock % protected ([1]; dose 56.2 mg/kg IP) of 0% and a Metrazole % protected ([2]; dose 100 mg/kg IP) of 0%.

`CNC(=O)N1CC(Oc2cccc(Cl)c2)C1` [Example 9, 3-(3-Chlorophenoxy)-N-methyl-1-azetidinecarboxamide] showed an ED50 [1] of 45.5 mg/kg and a Metrazole % protected ([2]; dose 100 mg/kg IP) of 37.5%.

`CNC(=O)N1CC(Oc2ccc(Cl)cc2)C1` [Example 10, 3-(4-Chlorophenoxy)-N-methyl-1-azetidinecarboxamide] gave an ED50 [1] of 23.8 mg/kg and an ED50 [2] of 50 mg/kg.

For `NC(=O)N1CC(Oc2ccc(Cl)cc2Cl)C1` [Example 11, 3-(2,4-Dichlorophenoxy)-1-azetidinecarboxamide], the Electroshock % protected ([1]; dose 17.8 mg/kg IP) was 0%, the Electroshock % protected ([1]; dose 31.6 mg/kg IP) was 100% and the ED50 [2] was 31.6 mg/kg.

`CN(C)C(=O)N1CC(Oc2ccc(Cl)cc2Cl)C1` [Example 12, 3-(2,4-Dichlorophenoxy)-N,N,-dimethyl-1-azetidinecarboxamide] showed an Electroshock % protected ([1]; dose 17.8 mg/kg IP) of 0% and an Electroshock % protected ([1]; dose 31.6 mg/kg IP) of 100%.

In the case of `CNC(=O)N1CC(Oc2ccc(Cl)cc2Cl)C1` [Example 13, 3-(2,4-Dichlorophenoxy)-N-methyl-1-azetidinecarboxamide], the ED50 [1] is reported as 18.5 mg/kg and the ED50 [2] is reported as 40.9 mg/kg.

`Cc1cccc(Cl)c1OC1CN(C(N)=O)C1` [Example 14, 3-(2-Chloro-6-methylphenoxy)-1-azetidinecarboxamide] gave an ED50 [1] of 81.5 mg/kg.

With `Cc1cccc(Cl)c1OC1CN(C(=O)N(C)C)C1` [Example 15, 3-(2-Chloro-6-methylphenoxy)-N,N-dimethyl-1-azetidinecarboxamide] the Electroshock % protected ([1]; dose 31.6 mg/kg IP) was 37.5-62.5%.

`CNC(=O)N1CC(Oc2c(C)cccc2Cl)C1` [Example 16, 3-(2-Chloro-6-methyphenoxy)-N-methyl-1-azetidinecarboxamide] showed an ED50 [1] of 53 mg/kg.

In the case of `CNC(=O)N1CC(Oc2ccc(F)cc2Cl)C1` [Example 17, 3-(2-Chloro-4-fluorophenoxy)-N-methyl-1-azetidinecarboxamide], the ED50 [1] is reported as 44.5 mg/kg and the ED50 [2] is reported as 32.8 mg/kg.

`CNC(=O)N1CC(Oc2cc(C(F)(F)F)ccc2Cl)C1` [Example 18, 3-[2-Chloro-5-(trifluoromethyl)phenoxy]-N-methyl-1-azetidinecarboxamide] gave an Electroshock % protected ([1]; dose 56.2 mg/kg IP) of 37.5% and an Electroshock % protected ([1]; dose 100 mg/kg IP) of 50%.

Compound `CNC(=O)N1CC(Oc2cc(C(F)(F)F)ccc2F)C1` [Example 19, 3-[2-Fluoro-5-(trifluoromethyl)phenoxy]-N-methyl-1-azetidine-carboxamide] has an Electroshock % protected ([1]; dose 31.6 mg/kg IP) of 50% and an Electroshock % protected ([1]; dose 56.2 mg/kg IP) of 50%.

With `CNC(=O)N1CC(Oc2ccc(Cl)c(Cl)c2)C1` [Example 20, 3-(3,4-Dichlorophenoxy)-N-methyl-1-azetidinecarboxamide] the ED50 [1] was 39.5 mg/kg and the ED50 [2] was 49.5 mg/kg.
